In patent US6465509B2, “Pyrones as inhibitors of cyclooxygenase-2” (Merck Frosst Canada & Co., priority 2000, dated 2002):

What was measured:
COX-2 = molecular target: T1, COX-2 (Homo sapiens, UniProt P35354); assay: Whole cell assay for COX-2 using CHO[hCOX-2] transfected cell line; assay type: cell-based; set-up: expressed in transfected cells; host or cells: CHO cells stably transfected with pCDNAIII (CHO[hCOX-2]); conditions: CHO[hCOX-2] cells, PGE2 synthesis, 10 μM AA
T1 sequence (P35354 18-604): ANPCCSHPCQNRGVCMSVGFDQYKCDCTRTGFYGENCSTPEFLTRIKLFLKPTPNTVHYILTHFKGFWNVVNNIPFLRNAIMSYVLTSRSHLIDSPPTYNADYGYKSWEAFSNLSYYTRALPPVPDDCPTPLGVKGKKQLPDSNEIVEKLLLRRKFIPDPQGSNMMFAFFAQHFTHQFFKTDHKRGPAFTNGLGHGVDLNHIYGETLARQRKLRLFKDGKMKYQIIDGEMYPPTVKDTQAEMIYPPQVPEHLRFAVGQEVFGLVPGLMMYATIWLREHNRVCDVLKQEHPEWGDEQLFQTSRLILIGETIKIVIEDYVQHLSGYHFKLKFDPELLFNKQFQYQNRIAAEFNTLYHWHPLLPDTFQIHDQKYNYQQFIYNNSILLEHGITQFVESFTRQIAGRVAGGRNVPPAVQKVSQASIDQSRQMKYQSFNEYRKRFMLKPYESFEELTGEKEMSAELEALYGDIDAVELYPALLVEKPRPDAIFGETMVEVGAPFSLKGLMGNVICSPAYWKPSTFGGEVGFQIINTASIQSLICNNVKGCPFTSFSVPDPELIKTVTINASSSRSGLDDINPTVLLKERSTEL
Text: Whole cell assays for COX-2 and COX-1 using CHO transfected cell lines
Chinese hamster ovary (CHO) cell lines which have been stably transfected with an eukaryotic expression vector pCDNAIII containing either the human COX-1 or COX-2 cDNA's are used for the assay. These cell lines are referred to as CHO[hCOX-1] and CHO[hCOX-2], respectively. For cyclooxygenase assays, CHO[hCOX-1] cells from suspension cultures and CHO[hCOX-2] cells prepared by trypsinization of adherent cultures are harvested by centrifugation (300×g, 10 min) and washed once in HBSS containing 15 mM HEPES, pH 7.4, and resuspended in HBSS, 15 mM HEPES, pH 7.4, at a cell concentration of 1.5×10^6 cells/ml. Drugs to be tested are dissolved in DMSO to 66.7-fold the highest test drug concentration. Compounds are typically tested at 8 concentrations in duplicate using serial 3-fold serial dilutions in DMSO of the highest drug concentration. Cells (0.3×10^6 cells in 200 μl) are preincubated with 3 μl of the test drug or DMSO vehicle for 15 min at 37° C. Working solutions of peroxide-free AA (5.5 μM and 110 μM AA for the CHO[hCOX-1] and CHO[COX-2] assays, respectively) are prepared by a 10-fold dilution of a concentrated AA solution in ethanol into HBSS containing 15 mM HEPES, pH 7.4. Cells are then challenged in the presence or absence of drug with the AA/HBSS solution to yield a final concentration of 0.5 μM AA in the CHO[hCOX-1] assay and a final concentration of 10 μM AA in the CHO[hCOX-2] assay. The reaction is terminated by the addition of 10 μl 1N HCl followed by neutralization with 20 μl of 0.5N NaOH. The samples are centrifuged at 300×g at 4° C. for 10 min, and an aliquot of the clarified supernatant is appropriately diluted for the determination of PGE2 levels using an enzyme-linked immunoassay for PGE2 (Correlate PGE2 enzyme immunoassay kit, Assay Designs, Inc.). Cyclooxygenase activity in the absence of test compounds is determined as the difference in PGE2 levels of cells challenged with arachidonic acid versus the PGE2 levels in cells mock-challenged with ethanol vehicle. Inhibition of PGE2 synthesis by test compounds is calculated as a percentage of the activity in the presence of drug versus the activity in the positive control samples.
Compounds of the present invention are inhibitors of cyclooxygenase-2 and are thereby useful in the treatment of cyclooxygenase-2 mediated diseases as enumerated above. The activities of the compounds against cyclooxygenase may be seen in the representative results shown below. In the assay, inhibition is determined by measuring the amount of prostaglandin E2 (PGE2) synthesized in the presence of arachidonic acid, cyclooxygenase-1 or cyclooxygenase-2 and a putative inhibitor. The IC50 values represent the concentration of putative inhibitor required to return PGE2 synthesis to 50% of that obtained as compared to the uninhibited control.

COX-1 = COX-1 (Homo sapiens, UniProt P23219); assay: Human whole blood assay, COX-1 (clotting-induced TxB2 production); assay type: cell-based; set-up: endogenous in cells; host or cells: platelets in fresh human whole blood without anticoagulant; conditions: clotting-induced TxB2, 1 hour at 37° C., read-out: COX-1 (IC50 μM) HWB
Description: Human whole blood provides a protein and cell-rich milieu appropriate for the study of biochemical efficacy of anti-inflammatory compounds such as selective COX-2 inhibitors. […] This is consistent with the observation that COX-2 inhibitors have no effect on PGE2 production in normal blood. These inhibitors are active only after incubation of human whole blood with LPS, which induces COX-2. This assay can be used to evaluate the inhibitory effect of selective COX-2 inhibitors on PGE2 production. As well, platelets in whole blood contain a large amount of the COX-1 enzyme. Immediately following blood clotting, platelets are activated through a thrombin-mediated mechanism. This reaction results in the production of thromboxane B2 (TxB2) via activation of COX-1. Thus, the effect of test compounds on TxB2 levels following blood clotting can be examined and used as an index for COX-1 activity. Therefore, the degree of selectivity by the test compound can be determined by measuring the levels of PGE2 after LPS induction (COX-2) and TxB2 following blood clotting (COX-1) in the same assay.
B. COX-1 (Clotting-induced TxB2 production)
Fresh blood is collected into vacutainers containing no anticoagulants. Aliquots of 500 μL are immediately transferred to siliconized microcentrifuge tubes preloaded with 2 μL of either DMSO or a test compound at final concentrations varying from 10 nM to 30 μM. The tubes are vortexed and incubated at 37° C. for 1 hour to allow blood to clot. At the end of incubation, serum is obtained by centrifugation (12,000×g for 5 min.). A 100 μL aliquot of serum is mixed with 400 μL of methanol for protein precipitation. The supernatant is obtained and is assayed for TxB2 using a enzyme immunoassay kit (Cayman, #519031) according to the manufacturer's instruction.

COX-1, sequence (P23219 24-599): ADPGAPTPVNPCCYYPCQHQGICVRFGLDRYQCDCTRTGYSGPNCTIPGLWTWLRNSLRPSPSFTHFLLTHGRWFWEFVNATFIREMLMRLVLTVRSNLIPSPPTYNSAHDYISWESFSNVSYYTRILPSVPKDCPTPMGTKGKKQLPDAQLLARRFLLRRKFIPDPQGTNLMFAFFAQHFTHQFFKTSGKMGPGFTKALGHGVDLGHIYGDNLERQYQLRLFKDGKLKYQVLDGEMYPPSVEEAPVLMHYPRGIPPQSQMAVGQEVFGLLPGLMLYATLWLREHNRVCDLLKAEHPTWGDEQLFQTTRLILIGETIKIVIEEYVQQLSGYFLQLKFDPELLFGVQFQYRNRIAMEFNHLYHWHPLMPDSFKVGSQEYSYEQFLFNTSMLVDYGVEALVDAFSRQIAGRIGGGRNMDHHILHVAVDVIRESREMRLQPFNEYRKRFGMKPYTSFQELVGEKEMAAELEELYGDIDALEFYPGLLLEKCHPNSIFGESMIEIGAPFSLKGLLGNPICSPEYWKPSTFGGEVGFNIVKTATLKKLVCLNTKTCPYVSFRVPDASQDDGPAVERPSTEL

| Structure (SMILES) | IC50 (COX-2) | IC50 (COX-1) |
| --- | --- | --- |
| CS(=O)(=O)c1ccc(-c2cc(C(F)F)oc(=O)c2-c2ccccc2)cc1 [Example 5, 6-Difluoromethyl-4-(4-methylsulfonyl)phenyl-3-phenyl-pyran-2-one] | 0.2 µM | – |
| CS(=O)(=O)c1ccc(-c2ccoc(=O)c2-c2ccccc2)cc1 [Example 1, 4-(4-Methylsulfonyl)phenyl-3-phenyl-pyran-2-one] | 0.12 µM | 13 µM |
| Cc1cc(-c2ccc(S(C)(=O)=O)cc2)c(CCC(C)(C)O)c(=O)o1 [Example 14, 3-(3-Hydroxy-3-methylbutyl)-6-methyl-4-(4-methylsulfonyl)phenyl-pyran-2-one] | 2.8 µM | – |
| CS(=O)(=O)c1ccc(-c2cc(CF)oc(=O)c2-c2ccccc2)cc1 [Example 6, 6-Fluoromethyl-4-(4-methylsulfonyl)phenyl-3-phenyl-pyran-2-one] | 1.1 µM | – |
| Cc1cc(-c2ccc(S(C)(=O)=O)cc2)c(-c2cccc(F)c2)c(=O)o1 [Example 3, 3-(3-Fluorophenyl)-6-methyl-4-(4-methylsulfonyl)phenyl-pyran-2-one] | 0.6 µM | 6.9 µM |
| CC(C)Sc1c(-c2ccc(S(C)(=O)=O)cc2)cc(C(F)(F)F)oc1=O [Example 12, 3-Isopropylthio-4-(4-(methylsulfonyl)phenyl)-6-trifluoromethyl-pyran-2-one] | 0.06 µM | – |

The remaining lines, values ahead:

| IC50 (COX-2) | IC50 (COX-1) | Structure (SMILES) |
| --- | --- | --- |
| 0.8 µM | – | Cc1cc(-c2ccc(S(C)(=O)=O)cc2)c(SC(C)C)c(=O)o1 [Example 10, 3-Isopropylthio-6-methyl-4-(4-(methylsulfonyl)phenyl)-pyran-2-one] |
| 2.9 µM | 16 µM | Cc1cc(-c2ccc(S(C)(=O)=O)cc2)c(-c2cccnc2)c(=O)o1 [Example 9] |
| 0.4 µM | 6.3 µM | Cc1cc(-c2ccc(S(C)(=O)=O)cc2)c(-c2ccccc2)c(=O)o1 [Example 4, 6-Methyl-4-(4-methylsulfonyl)phenyl-3-phenyl-pyran-2-one] |
| 0.4 µM | 2 µM | Cc1cc(-c2ccc(S(C)(=O)=O)cc2)c(-c2ccc(F)cc2)c(=O)o1 [Example 2, 3-(4-Fluorophenyl)-6-methyl-4-(4-methylsulfonyl)phenyl-pyran-2-one] |
| 0.01 µM | – | CS(=O)(=O)c1ccc(-c2cc(C(F)(F)F)oc(=O)c2Sc2ccccc2)cc1 [Example 11, 4-(4-(Methylsulfonyl)phenyl)-3-phenylthio-6-trifluoromethyl-pyran-2-one] |
| 0.14 µM | 16 µM | Cc1cc(-c2ccc(S(C)(=O)=O)cc2)c(Sc2ccccc2)c(=O)o1 [Example 7, 6-Methyl-4-(4-(methylsulfonyl)phenyl)-3-phenylthio-pyran-2-one] |
| 0.2 µM | 13 µM | Cc1cc(-c2ccc(S(C)(=O)=O)cc2)c(Oc2ccccc2)c(=O)o1 [Example 8, 6-Methyl-4-(4-(methylsulfonyl)phenyl)-3-phenoxy-pyran-2-one] |
